# Tests used:
# normal pooled plasma = assay: Blood coagulation activities (aPTT, PT, fibrinogen) in normal pooled plasma; parameters: species or system human; details: after incubation with 50 or 100 μg/ml
# Protocol: MA-CDPS, HP-CDPS, CE-CDPS and CDPS (as defined in examples 3-4 and characterised in table 1) were prepared as buffered solutions at various concentrations. The polysaccharides were incubated with normal pooled plasma prepared out of 40 healthy volunteers and analyzed for their effects on activated partial thromboplastin time (aPTT), prothrombin time (PT) and fibrinogen levels on a STA Compact® coagulation analyzer (available from Diagnostica Stago, Asnieres, France) according to the manufacturers instructions.
# [1] = tested on: healthy donor thrombocytes; assay: Platelet activation (CD62p, flow cytometry) by HIT patient anti-heparin/PF4 antibodies; assay type: cell-based, human; details: for ratio: % CD62p+ (with substance)/% CD62p+ (without) / ΔCD62p+ %: percentage increases in CD62p positive platelets: 0.3 IU heparin or 5 μg/ml polysaccharide
# Protocol: The activation of healthy donor thrombocytes by HIT patient anti-heparin/PF4 antibodies in the presence of heparin and the differently sulfated forms of β-cyclodextrin was tested. […] The expression of CD62p by the activated platelets was assayed by means of flow cytometry with a FC500 analyzer (available from Beckman Coulter, Belgium). Platelet-rich plasma solution (PRP) was prepared by slow centrifugation (10 minutes at 180 g) of fresh citrate anti-coagulated blood (1:9 v/v, 0.129 mol/L or 3.8% trisodium citrate buffer), obtained from normal donors. HIT Ab positive plasma samples from patients and HIT Ab negative control plasma from healthy donors were prepared by double centrifugation (15 minutes at 2230 rpm) of fresh citrate anti-coagulated blood. 70 μl of PRP was incubated with 20 μL of HIT Ab containing plasma optionally in the presence of heparin (0.3 IU/ml) or the relevant β-cyclodextrin derivative (5 μg/ml). Experiments with each HIT Ab positive plasma sample were repeated independently using thrombocytes of 2 donors (A and B), to avoid the possibility of non-reactive platelets.
# Following the initial 40 minutes incubation step, 5 μl of the platelets solution was transferred to a fresh tube with 85 μL phosphate buffered saline (PBS) containing 1% bovine serum albumin (BSA) and 0.1% Na-azide, 5 μl (0.25 μg) monoclonal anti-CD41 antibodies (Ab) (phycoerythrin-Texas Red Energy coupled dye (ECD)-conjugated, Beckman Coulter) and 5 μl (0.125 μg) of anti-CD62p Ab (phycoerythrin (PE)-conjugated, Beckman Coulter). CD41 (Glycoprotein […]) is a selective marker of platelets and platelet precursors. CD62p is a constituent of alpha granules and is released to the platelet surface on activation.
# After 20 minutes of incubation at room temperature, the total volume of the platelet suspension was adjusted to 600 μL buffered solution and evaluated without delay by flow cytometry. 20,000 events per sample were analysed and the platelet populations were gated by side scatter characteristics and the platelet marker CD41. The fraction of activated platelets among the total platelet population was determined and relative CD62p ratios to the internal controls were calculated. [ratio: % CD62p^+ (0.3 IU Heparine or 5 μg/ml β-cyclodextrin derivative)/% CD62p^+ (0 IU Heparine or 0 μg/ml β-cyclodextrin derivative)]. Test results for the heparin treated platelets were evaluated by the scoring system described in Thromb. Haemost. (1999) 82:1255-1259. Control tests were scored positive when the calculated ratios of at least 2 donors were more then 2, based on previously obtained results with normal individuals. To evaluate the potential of the different β-cyclodextrin derivatives to induce platelet activation, both the percentages and ratios of CD62p^+ platelets after incubation with the respective β-cyclodextrin were statistically compared to the percentage and the ratio of CD62p^+ platelets after heparin incubation.
# [2] = tested on: rabbit model of experimental osteoarthritis (OA); details: subcutaneously administered; cited from earlier work
# thrombin clotting = details: in vitro; cited from earlier work
# [3] = tested on: human articular chondrocytes from osteoarthritic (OA) cartilage; assay: Aggrecan synthesis by OA chondrocytes in alginate beads (ELISA of interterritorial matrix); assay type: cell-based; details: 5 μg/ml, 5 culture days
# Text: (§1) Human articular chondrocytes were isolated as described in J. Tissue Culture Methods (1993) 15:139-146). Briefly, human articular cartilage was obtained at total knee replacement surgery from femoral condyles and the tibial plateau of 15 different donors. None of them had received corticosteroids or cytostatic drugs. Both visually intact and fibrillated OA cartilage samples were harvested separately and only OA cartilage was used for cell culture. The cartilage samples were diced into small fragments and the chondrocytes were isolated by sequential enzymatic digestion (hyaluronidase, pronase and collagenase) of the extracellular matrix (ECM) as described in Osteoarthritis Cartilage (2001) 9:73-84. Isolated cells were then centrifuged for 10 minutes at 1500 rpm, washed three times in Dulbecco's Modified Eagle's Medium (DMEM) with 10% (v/v) fetal calf serum, and counted with trypan blue to exclude dead cells. More than 90% of the cells were viable after isolation.
# (§2) Chondrocytes were cultured in alginate beads, to maintain their differentiated phenotype. The cultures were prepared as described in Connect Tissue Res. (1989) 19:277-297. Chondrocytes suspended in one volume of double-concentrated Hank's Balanced Salts Solution (HBSS, commercially available from Gibco) without calcium and magnesium were carefully mixed with an equal volume of 2% (w/v) autoclaved alginate (low-viscosity alginate from Macrocystis pyrifera, commercially available from Sigma) in HBSS. The final cell concentration was 5×10^6 chondrocytes per ml in 1% alginate. The chondrocyte/alginate suspension was then slowly dripped through a 23-gauge needle into a 102 mM calcium chloride solution. […]
# (§3) To study the impact of the changes in the chondrocyte cultures after cyclodextrin polysulfate treatment, mean IL-6 and aggrecan concentrations were calculated from triplicate chondrocyte cultures of each donor. […] Evolution of mouse weight over time was analysed by longitudinal data analysis methods, more specific by area under the curve and mixed model analysis. […]
# [4] = tested on: human articular chondrocytes from osteoarthritic (OA) cartilage; assay: IL-6 release by OA chondrocytes in alginate beads; assay type: cell-based; details: 5 μg/ml, 5 culture days
# Text: as §1, §2, §3
# [5] = HIT ab plasma pat1, platelet donor dA
# [6] = HIT ab plasma pat1, platelet donor dB
# [7] = HIT ab plasma pat2, platelet donor dB
# [8] = HIT ab plasma pat3, platelet donor dA
# [9] = HIT ab plasma pat3, platelet donor dB
# [10] = HIT ab plasma pat4, platelet donor dA
# [11] = HIT ab plasma pat4, platelet donor dB
compound,measurement,setting,value
β-cyclodextrin polysulfate [CDPS],fibrinogen concentrations,normal pooled plasma,Minor decreases
same,ratio: % CD62p+ (with substance)/% CD62p+ (without),[1]; [5],5.8
same,ΔCD62p+ %: percentage increases in CD62p positive platelets,[1]; [5],76.1%
same,ratio: % CD62p+ (with substance)/% CD62p+ (without),[1]; [6],6.5
same,ΔCD62p+ %: percentage increases in CD62p positive platelets,[1]; [6],73.1%
same,ΔCD62p+ %: percentage increases in CD62p positive platelets,"[1]; HIT ab plasma pat2, platelet donor dA",27.5%
same,ratio: % CD62p+ (with substance)/% CD62p+ (without),[1]; [7],0.7
same,ΔCD62p+ %: percentage increases in CD62p positive platelets,[1]; [7],−2.8%
same,ratio: % CD62p+ (with substance)/% CD62p+ (without),[1]; [8],2.5
same,ΔCD62p+ %: percentage increases in CD62p positive platelets,[1]; [8],42.7%
same,ratio: % CD62p+ (with substance)/% CD62p+ (without),[1]; [9],7.0
same,ΔCD62p+ %: percentage increases in CD62p positive platelets,[1]; [9],34.1%
same,ratio: % CD62p+ (with substance)/% CD62p+ (without),[1]; [10],4.4
same,ΔCD62p+ %: percentage increases in CD62p positive platelets,[1]; [10],63.5%
same,ratio: % CD62p+ (with substance)/% CD62p+ (without),[1]; [11],2.5
same,ΔCD62p+ %: percentage increases in CD62p positive platelets,[1]; [11],58.1%
same,platelet activation,[1]; in the presence of plasma samples of individuals that had developed HIT Ab,induced platelet activation
same,cartilage lesions and osteocyte formation in the affected joints,[2],reduced
same,thrombin clotting times,thrombin clotting,prolongation
same,thrombus formation,thrombin clotting,reduction
"COC[C@H]1O[C@@H]2O[C@H]3[C@H](OC)[C@@H](OC)[C@@H](O[C@H]4[C@H](OC)[C@@H](OC)[C@@H](O[C@H]5[C@H](OC)[C@@H](OC)[C@@H](O[C@H]6[C@H](OC)[C@@H](OC)[C@@H](O[C@H]7[C@H](OC)[C@@H](OC)[C@@H](O[C@H]8[C@H](OC)[C@@H](OC)[C@@H](O[C@H]1[C@H](OC)[C@H]2OC)O[C@@H]8COC)O[C@@H]7COC)O[C@@H]6COC)O[C@@H]5COC)O[C@@H]4COC)O[C@@H]3COC [ME-CD, 2,3,6-tri-O-methyl-β-cyclodextrin]",effect on chondrocyte aggrecan synthesis,[3],failed to promote
same,effect on chondrocyte IL-6 release/secretion,[4],failed
"2,3-di-O-methyl-6-sulfate-β-cyclodextrin [ME-CD-6-S]",effect on chondrocyte aggrecan synthesis,[3],failed to affect
same,effect on chondrocyte IL-6 release/secretion,[4],failed to affect
"2,6-di-O-methyl-3-sulfate-β-cyclodextrin [ME-CD-3-S]",effect on chondrocyte aggrecan synthesis,[3],failed to affect
same,effect on chondrocyte IL-6 release/secretion,[4],failed to affect
